Earlier results as cited in patent publication US20230381197A1, “COMPOSITIONS FOR NON-SURGICAL PREVENTION OF BOAR TAINT AND […]” (Insigna Inc., priority 2022, published 2023).

Test system: Sertoli cells
Conditions: young male pigs

SMILES: C[C@]12CC[C@@H]3c4ccc(O)cc4C[C@@H](CCCCCCCCC[S+]([O-])CCCC(F)(F)C(F)(F)F)[C@H]3[C@@H]1CC[C@@H]2O (some centres unmarked) [ICI 182,780]
- duration of Sertoli cell proliferation and testis size: highly significant increase

SMILES: N#Cc1ccc(C(c2ccc(C#N)cc2)n2cncn2)cc1 [Letrozole]
- duration of Sertoli cell proliferation and testis size: highly significant increase
